In US20130196984A1, “3-AMINO-5-PHENYL-56-DIHYDRO-2H-[1,4]OXAZINES” (Siena Biotech S.p.A., priority 2009, published 2013):
Counter-ions that a name gives are not always drawn.

Legend:
BACE2 [1] = molecular target: T1, BACE2 (Homo sapiens, UniProt Q9Y5Z0); experiment: Assay A: binding studies using SPR based methods, immobilised BACE2; conditions: CM5 chip, immobilised BACE2 enzyme ectodomain, acetate buffer pH 4.6, 4% DMSO
T1 construct: BACE2 enzyme ectodomain (derived from plasmid “pET17b-T7-hu proBACE2”); T7 (N); made in house
T1 sequence (Q9Y5Z0 63-473 limits assumed): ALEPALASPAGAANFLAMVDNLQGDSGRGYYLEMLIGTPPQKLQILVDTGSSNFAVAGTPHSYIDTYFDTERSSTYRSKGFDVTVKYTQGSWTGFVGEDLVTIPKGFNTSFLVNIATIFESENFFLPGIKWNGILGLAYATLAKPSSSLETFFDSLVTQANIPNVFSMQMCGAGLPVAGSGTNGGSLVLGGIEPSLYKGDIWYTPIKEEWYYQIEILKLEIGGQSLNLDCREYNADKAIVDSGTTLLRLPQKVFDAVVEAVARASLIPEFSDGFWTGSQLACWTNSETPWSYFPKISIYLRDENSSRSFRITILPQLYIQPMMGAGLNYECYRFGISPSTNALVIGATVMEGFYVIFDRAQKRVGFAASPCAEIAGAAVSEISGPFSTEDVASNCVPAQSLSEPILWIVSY

BACE2 [2] = molecular target: T2, BACE2 (Rattus norvegicus, UniProt Q6IE75); experiment: Assay for BACE inhibition by measuring cellular TMEM27 cleavage; assay type: cell-based; conditions: INS-TMEM27 (INS1e-derived) cells, ELISA of shed human TMEM27 in supernatant;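 further: inhibitor added 2 h before doxycycline-induced hTMEM27 expression, supernatant collected after further 46 h, endogenous BACE2 activity read as reduced TMEM27 shedding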
T2 construct: endogenous cellular BACE2 in the Ins1e rat cell line; endogenous in cells; host or cells: INS-TMEM27 (INS1e-derived rat cell line with doxycycline-inducible full-length hTMEM27)
T2 sequence (Q6IE75 63-514): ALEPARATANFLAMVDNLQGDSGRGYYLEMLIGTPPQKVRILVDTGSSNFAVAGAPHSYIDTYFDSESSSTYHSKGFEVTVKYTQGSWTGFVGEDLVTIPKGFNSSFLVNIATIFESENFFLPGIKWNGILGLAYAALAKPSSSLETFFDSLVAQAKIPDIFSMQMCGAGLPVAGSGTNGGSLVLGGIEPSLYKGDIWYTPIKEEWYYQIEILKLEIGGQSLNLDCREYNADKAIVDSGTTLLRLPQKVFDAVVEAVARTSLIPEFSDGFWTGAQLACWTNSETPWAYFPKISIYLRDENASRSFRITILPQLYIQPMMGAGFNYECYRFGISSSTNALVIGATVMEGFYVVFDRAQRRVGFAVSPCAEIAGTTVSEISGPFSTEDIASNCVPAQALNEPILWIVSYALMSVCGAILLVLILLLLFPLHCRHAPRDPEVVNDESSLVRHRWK

BACE1 [3] = molecular target: T3, BACE1 (Homo sapiens, UniProt P56817); experiment: Cellular Abeta-lowering assay; assay type: cell-based; design: endogenous in cells; host or cells: HEK293 stably transfected with human APP695 wt; conditions: HEK293 cells stably transfected with human APP wt (APP695), Aβ40 ELISA of supernatant after 18-20 hrs
BACE1 [4] = molecular target: T3, BACE1; experiment: Assay A: binding studies using SPR based methods, immobilised BACE1; design: 6his-tagged full length BACE 1 expressed in SF9 cells; 6His; made in house; host or cells: SF9 insect cells; conditions: CM5 chip, immobilised 6his-tagged full length BACE 1, acetate buffer pH 4.6, 4% DMSO;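 further: KD from a 1:1 kinetic fit (koff/kon) of real-time association and dissociation curves, or for fast binders from end-of-association equilibrium responses plotted against log concentration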

T3 sequence (P56817 46-501): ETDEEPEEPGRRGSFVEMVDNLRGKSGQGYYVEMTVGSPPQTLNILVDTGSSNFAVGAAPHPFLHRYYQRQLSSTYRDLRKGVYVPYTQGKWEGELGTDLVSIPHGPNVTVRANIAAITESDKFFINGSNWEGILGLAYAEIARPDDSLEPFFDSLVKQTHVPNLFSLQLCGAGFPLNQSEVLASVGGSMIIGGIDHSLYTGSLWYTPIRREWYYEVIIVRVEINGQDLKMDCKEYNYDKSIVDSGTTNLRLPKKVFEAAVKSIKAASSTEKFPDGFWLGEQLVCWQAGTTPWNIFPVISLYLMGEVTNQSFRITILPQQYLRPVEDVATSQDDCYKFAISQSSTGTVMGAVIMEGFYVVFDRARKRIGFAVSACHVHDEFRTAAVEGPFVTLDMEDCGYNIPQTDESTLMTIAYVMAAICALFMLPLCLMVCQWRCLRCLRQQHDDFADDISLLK

C[C@@]1(c2cc(NC(=O)C(F)F)ccc2F)COCC(N)=N1 [Example 91, N-[3-((R)-5-amino-3-methyl-3,6-dihydro-2H-[1,4]oxazin-3-yl)-4-fluoro-phenyl]-2,2-difluoro-acetamide formate]
Kd (BACE2 [1]): 1140 nM | IC50 (BACE2 [2]): 95 nM | IC50 (BACE1 [3]): 1460 nM | Kd (BACE1 [4]): 994 nM

CC(C)(F)C(=O)Nc1ccc(F)c([C@]2(C)COCC(N)=N2)c1 [Example 92, N-[3-((R)-5-amino-3-methyl-3,6-dihydro-2H-[1,4]oxazin-3-yl)-4-fluoro-phenyl]-2-fluoro-2-methyl-propionamide formate]
Kd (BACE2 [1]): 1070 nM | IC50 (BACE2 [2]): 1090 nM | IC50 (BACE1 [3]): 400 nM | Kd (BACE1 [4]): 2220 nM

CC(=O)Nc1ccc(F)c([C@]2(C)COCC(N)=N2)c1 [Example 93, N-[3-((R)-5-amino-3-methyl-3,6-dihydro-2H-[1,4]oxazin-3-yl)-4-fluoro-phenyl]-acetamide formate]
Kd (BACE2 [1]): 3850 nM | IC50 (BACE2 [2]): 3390 nM | IC50 (BACE1 [3]): 6820 nM | Kd (BACE1 [4]): > 10000 nM

CCC(=O)Nc1ccc(F)c([C@]2(C)COCC(N)=N2)c1 [Example 94, N-[3-((R)-5-amino-3-methyl-3,6-dihydro-2H-[1,4]oxazin-3-yl)-4-fluoro-phenyl]-propionamide formate]
Kd (BACE2 [1]): 1950 nM | IC50 (BACE2 [2]): 1080 nM | IC50 (BACE1 [3]): 1400 nM | Kd (BACE1 [4]): 2700 nM

Cc1cc(Cl)cnc1C(=O)Nc1ccc(F)c([C@]2(C)COCC(N)=N2)c1 [Example 98, 5-chloro-3-methyl-pyridine-2-carboxylic acid [3-((R)-5-amino-3-methyl-3,6-dihydro-2H-[1,4]oxazin-3-yl)-4-fluoro-phenyl]-amide]
Kd (BACE2 [1]): 4 nM | IC50 (BACE2 [2]): 1 nM | IC50 (BACE1 [3]): 7 nM | Kd (BACE1 [4]): 14 nM

C[C@@]1(c2cc(NC(=O)c3ccc(F)cn3)ccc2F)COCC(N)=N1 [Example 99, 5-fluoro-pyridine-2-carboxylic acid [3-((R)-5-amino-3-methyl-3,6-dihydro-2H-[1,4]oxazin-3-yl)-4-fluoro-phenyl]-amide]
Kd (BACE2 [1]): 8 nM | IC50 (BACE2 [2]): 3 nM | IC50 (BACE1 [3]): 17 nM | Kd (BACE1 [4]): 46 nM
